Laboratory results reported in US20070258889A1, “NOVEL NANOPARTICLES AND USE THEREOF” (Montana State University, priority 2005, published 2007).
Converted amounts (≈) assume the structure as drawn.

Columns and labels:
[1] = Singlet oxygen production assay (TEMP to TEMPO, EPR); details: 20 μM reactive dye, 50 mM TEMP, DPBS pH 7.4; free dye
Method: In order to analyze the singlet O2 production by protein RuIphen composite, the conversion of TEMP to TEMPO by singlet O2 was monitored by EPR. Briefly, the light induced production of singlet O2 assay was conducted in a serum vial open to the air with vigorous stirring. The reaction was conducted in 50 mM TEMP with DPBS at pH 7.4. The each of the reactions were normalized to 20 μM reactive dye (RuIphen or Rose Bengal). At each time point, 100 μL of the solution was removed and added to 10 μL of 1M sodium azide to quench the singlet O2 production. Hsp G41CRu was labeled with two different loadings of RuIphen 51% and 82%. […] In order to probe the loss of EPR signal in the free Ru^∥bpy3 control, free Ru^∥bpy3 was illuminated in the presence of purchased TEMPO both in the presence and absence of molecular O2.
Singlet Oxygen Production Assay. In a 3 mL clear glass serum vial (Wheaton), 20 µM ruthenium (either free or attached to protein cage) and 50 mM 2,2,6,6-tetramethyl-4-piperidone (TEMP) final concentration was added to DPBS pH 7.4. […] For the oxygen-free reaction, the serum vials are sealed and degassed under nitrogen The light was quantitated using an Extech Instrument EasyView light meter to be 511, 700 I×. […]

[2] = room temperature; cited from earlier work
Solubility (saturation) = format: physicochemical; details: with 1% DMF, aqueous buffer, room temperature, solutions in which the protein cages are stable
tumor lung colonization = details: mouse, in vivo; cited from earlier work
tumor angiogenesis = details: mice; cited from earlier work
platlets and neutrophils = details: cited from earlier work
tumor cells = details: cited from earlier work

Compound: O=C([O-])c1c(Cl)c(Cl)c(Cl)c(Cl)c1-c1c2cc(I)c(=O)c(I)c-2oc2c(I)c([O-])c(I)cc12.[Na+].[Na+] [Rose Bengal]
- increase in the amount of TEMPO generated [1]: 4 fold

Compound: CC(=O)Oc1ccccc1C(=O)O [acetylsalicylic acid]
- solubility (saturation) [2]: ~18500 µM (≈ 3330 µg/mL)

Compound: COc1cccc2c1C(=O)c1c(O)c3c(c(O)c1C2=O)C[C@@](O)(C(=O)CO)C[C@@H]3O[C@H]1C[C@H](N)[C@H](O)[C@H](C)O1 [doxorubicin]
- solubility (Solubility (saturation)): ~2 µM (≈ 1.09 µg/mL)

Compound: O=C1OC2(c3ccc(O)cc3Oc3cc(O)ccc32)c2ccccc21 [fluorescein]
- solubility (Solubility (saturation)): ~2 µM (≈ 0.665 µg/mL)

Compound: CDPGYIGSRC [peptide 11]
- experimental tumor lung colonization (tumor lung colonization): reduces experimental tumor lung colonization
- tumor angiogenesis (tumor angiogenesis): inhibits tumor angiogenesis in mice
- toxic effect on platelets and neutrophils (platlets and neutrophils): no toxic effect on these cells
- invasion of basement membranes by tumor cells (tumor cells): effectively blocks invasion of basement membranes by tumor cells
